Experiment: Lactate concentration-gradient titration of purified probe (ratio of 420 nm to 485 nm excitation, 528 nm emission)
Assay type: binding
Conditions: ratio 420 nm/485 nm excitation
Description: (§1) 6. […] The fluorescence excitation and emission determination of the samples were done using a multifunctional fluorescence microplate reader.

| Substance | magnitude of change |
| --- | --- |
| P189C/P190Y: LldR(80-258)-185/189-cpYFP mutant | 4.3 fold |

Same assay, conditions: ratio 420 nm/485 nm excitation, read-out: Kd (binding constant)

| Substance | Kd |
| --- | --- |
| P189C/P190Y: LldR(80-258)-185/189-cpYFP mutant | 41 µM |

Experiment: Lactate response detection of purified probe (signal with 10 mM lactate divided by signal without lactate)
Assay type: biochemical
Conditions: M185 saturation mutants of two-site mutants of LldR(80-258)-185/189-cpYFP

| Substance | Response of the three-site mutants to lactate |
| --- | --- |
| M185L/P189H/P190D: three-site mutant of LldR(80-258)-185/189-cpYFP | 15.3 |
| M185L/P189M/P190D: three-site mutant of LldR(80-258)-185/189-cpYFP; Table 4 row printed WD | 5.6 |
| M185S/P189H/P190D: three-site mutant of LldR(80-258)-185/189-cpYFP | 7.0 |
| M185A/P189M/P190D: three-site mutant of LldR(80-258)-185/189-cpYFP; Table 4 row printed WD | 8.4 |
| M185V/P189H/P190D: three-site mutant of LldR(80-258)-185/189-cpYFP | 6.2 |
| M185F/P189H/P190D: three-site mutant of LldR(80-258)-185/189-cpYFP | 8.0 |

Experiment: as above
Assay type: biochemical
Conditions: detection signal with 10 mM lactate divided by signal without lactate; mutants of LldR(80-258)-185/189-cpYFP
Experimental: 4. After purified proteins were subjected to SDS-PAGE, probes were diluted to a protein solution having a final concentration of 5-10 μM using assay buffer (100 mm HEPES, 100 mM NaCl, pH 7.3) or phosphate buffer PBS.
as §1
Mutants of the two sites, 189 and 190, were constructed on the basis of LldR(80-258)-185/189-cpYFP. Plasmid pCDFDuet-LldR(80-258)-185/189-cpYFP was linearized by reverse PCR, mutations were introduced at mutation sites by primers, and the obtained PCR products was ligated by adding phosphorus with PNK, T4 DNA ligase, and PEG4000, transformed into BL21 (DE3), and then screened. […] Exemplary nucleic acid sequences were shown in SEQ ID No: 31 (LldR(80-258)-185/189-P189F/P190D-cpYFP).

| Substance | Responses to lactate for 189 mutant versus 190 mutant |
| --- | --- |
| P189F/P190H: LldR(80-258)-185/189-cpYFP mutant | 3.7 |
| P189N: LldR(80-258)-185/189-cpYFP mutant | 2.1 |
| P189H/P190R: LldR(80-258)-185/189-cpYFP mutant | 3.2 |
| P189/P190(WT): lactate optical probe, cpYFP inserted at 185/189 of LldR(80-258), unmutated | 0.2 |
| P189R/P190I: LldR(80-258)-185/189-cpYFP mutant | 3.5 |
| P189S: LldR(80-258)-185/189-cpYFP mutant | 3.3 |
| P189C/P190Y: LldR(80-258)-185/189-cpYFP mutant | 4.0 |
| P189H/P190D: LldR(80-258)-185/189-cpYFP mutant | 8.9 |
| P189F/P190D: LldR(80-258)-185/189-cpYFP mutant | 13.4 |
| P189N/P190Y: LldR(80-258)-185/189-cpYFP mutant | 3.1 |
| P189C/P190F: LldR(80-258)-185/189-cpYFP mutant | 2.3 |
| P189N/P190F: LldR(80-258)-185/189-cpYFP mutant | 2.3 |
| P189M/P190D: LldR(80-258)-185/189-cpYFP mutant | 7.0 |

Source: US20230203506A1, “LACTIC ACID OPTICAL PROBE, PREPARATION METHOD THEREFOR AND APPLICATION THEREOF” (East China University of Science and Technology, priority 2019, published 2023)
